We go through 23 compounds from patent US8846698B2, “Pyrrolo[2,3-d]pyrimidine tropomysin-related kinase inhibitors” (Pfizer Limited, priority 2011, dated 2014).

pIC50: −log10 of the molar value.

The target in this assay is TRKA (Homo sapiens (Human), UniProt P04629). Put plainly: Isolated TRK enzyme assay (HTRF KinEASE-TK), TRKA. The class given is biochemical. Particulars: read-out: Trka enzyme (IC50). (In TR-FRET formats the signal depends on donor and acceptor labels being close together.)
Chain of TRKA (P04629 441-796): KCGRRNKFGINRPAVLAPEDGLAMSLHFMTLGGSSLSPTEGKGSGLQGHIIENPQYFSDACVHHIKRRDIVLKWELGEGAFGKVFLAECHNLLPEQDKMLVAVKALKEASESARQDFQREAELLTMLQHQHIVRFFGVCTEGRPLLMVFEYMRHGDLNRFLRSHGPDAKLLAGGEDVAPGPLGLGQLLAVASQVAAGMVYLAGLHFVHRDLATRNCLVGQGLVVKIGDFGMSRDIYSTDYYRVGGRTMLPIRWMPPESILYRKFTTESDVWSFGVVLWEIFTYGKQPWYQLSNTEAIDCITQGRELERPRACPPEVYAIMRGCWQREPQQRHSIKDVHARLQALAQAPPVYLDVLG

Consider `CC(C)n1cc(C(=O)c2cncc(NC(=O)Cn3cc(C4(O)CCCC4)nn3)c2)c2cncnc21` [Example 363, 2-[4-(1-Hydroxy-cyclopentyl)-1,2,3-triazol-1-yl]-N-[5-(7-isopropyl-7H-pyrrolo[2,3-d]pyrimidine-5-carbonyl)-pyridin-3-yl]-acetamide], for which the pIC50 (in general, −log10 of the IC50, conventionally taken in molar units) is 5.99.

`Cc1cccc(-c2nnnn2CC(=O)Nc2cncc(C(=O)c3cn(C(C)C)c4ncncc34)c2)c1` [Example 364, N-[5-(7-Isopropyl-7H-pyrrolo[2,3-d]pyrimidine-5-carbonyl)-pyridin-3-yl]-2-(5-m-tolyl-tetrazol-1-yl)-acetamide]: the pIC50 is 5.30.

As to `CC(C)n1cc(C(=O)c2cncc(NC(=O)Cn3cnc(-c4ccc(F)cc4)c3)c2)c2cncnc21` [Example 365, 2-[4-(4-Fluoro-phenyl)-imidazol-1-yl]-N-[5-(7-isopropyl-7H-pyrrolo[2,3-d]pyrimidine-5-carbonyl)-pyridin-3-yl]-acetamide], the pIC50 was 5.69.

With `CC(C)c1ccnn1CC(=O)Nc1cncc(C(=O)c2cn(C(C)C)c3ncncc23)c1` [Example 366, 2-(5-Isopropyl-pyrazol-1-yl)-N-[5-(7-isopropyl-7H-pyrrolo[2,3-d]pyrimidine-5-carbonyl)-pyridin-3-yl]-acetamide], the pIC50 is 6.45.

Consider `CCc1nn2cc(CC(=O)Nc3cncc(C(=O)c4cn(C(C)C)c5ncncc45)c3)nc2s1` [Example 367, 2-(2-Ethyl-imidazo[2,1-b]-1,3,4-thiadiazol-6-yl)-N-[5-(7-isopropyl-7H-pyrrolo[2,3-d]pyrimidine-5-carbonyl)-pyridin-3-yl]-acetamide], for which the pIC50 was 5.25.

Turning to `Cc1cn2cc(CC(=O)Nc3cncc(C(=O)c4cn(C(C)C)c5ncncc45)c3)nc2s1` [Example 368, N-[5-(7-Isopropyl-7H-pyrrolo[2,3-d]pyrimidine-5-carbonyl)-pyridin-3-yl]-2-(2-methyl-imidazo[2,1-b]thiazol-6-yl)-acetamide], the pIC50 is 6.12.

Take `Cc1nc(Cl)nn1CC(=O)Nc1cncc(C(=O)c2cn(C(C)C)c3ncncc23)c1` [Example 369, 2-(3-Chloro-5-methyl-1,2,4-triazol-1-yl)-N-[5-(7-isopropyl-7H-pyrrolo[2,3-d]pyrimidine-5-carbonyl)-pyridin-3-yl]-acetamide]: the pIC50 was 5.52.

Take `CC(C)n1cc(C(=O)c2cncc(NC(=O)Cn3ccnc3-c3ccccc3)c2)c2cncnc21` [Example 370, N-[5-(7-Isopropyl-7H-pyrrolo[2,3-d]pyrimidine-5-carbonyl)-pyridin-3-yl]-2-(2-phenyl-imidazol-1-yl)-acetamide]: the pIC50 was 5.45.

As for `CC(C)n1cc(C(=O)c2cncc(NC(=O)Cc3cn4cc(Cl)sc4n3)c2)c2cncnc21` [Example 371, 2-(2-Chloro-imidazo[2,1-b]thiazol-6-yl)-N-[5-(7-isopropyl-7H-pyrrolo[2,3-d]pyrimidine-5-carbonyl)-pyridin-3-yl]-acetamide], the pIC50 is 7.01.

Consider `CC(C)n1cc(C(=O)c2cncc(NC(=O)Cn3ccnc3)c2)c2cncnc21` [Example 372, 2-Imidazol-1-yl-N-[5-(7-isopropyl-7H-pyrrolo[2,3-d]pyrimidine-5-carbonyl)-pyridin-3-yl]-acetamide], for which the pIC50 is 5.01.

On to `Cc1csc2nc(CC(=O)Nc3cncc(C(=O)c4cn(C(C)C)c5ncncc45)c3)cn12` [Example 373, N-[5-(7-Isopropyl-7H-pyrrolo[2,3-d]pyrimidine-5-carbonyl)-pyridin-3-yl]-2-(3-methyl-imidazo[2,1-b]thiazol-6-yl)-acetamide], for which the pIC50 is 6.09.

For the compound `CC(C)n1cc(C(=O)c2cncc(NC(=O)Cc3ccn(-c4ccc(O)cc4)c3)c2)c2cncnc21` [Example 374, 2-[1-(4-Hydroxy-phenyl)-1H-pyrrol-3-yl]-N-[5-(7-isopropyl-7H-pyrrolo[2,3-d]pyrimidine-5-carbonyl)-pyridin-3-yl]-acetamide], the pIC50 was 6.65.

For `CC(C)n1cc(C(=O)c2cncc(NC(=O)Cc3cnc4ncnn4c3)c2)c2cncnc21` [Example 375, N-[5-(7-Isopropyl-7H-pyrrolo[2,3-d]pyrimidine-5-carbonyl)-pyridin-3-yl]-2-[1,2,4]triazolo[1,5-a]pyrimidin-6-yl-acetamide], the pIC50 was 5.01.

For the compound `CC(C)n1cc(C(=O)c2cncc(NC(=O)Cc3cnccn3)c2)c2cncnc21` [Example 376, N-[5-(7-Isopropyl-7H-pyrrolo[2,3-d]pyrimidine-5-carbonyl)-pyridin-3-yl]-2-pyrazin-2-yl-acetamide], the pIC50 is 5.29.

On to `CC(C)n1cc(C(=O)c2cncc(NC(=O)Cn3cc(-c4cccc(O)c4)nn3)c2)c2cncnc21` [Example 377, 2-[4-(3-Hydroxy-phenyl)-1,2,3-triazol-1-yl]-N-[5-(7-isopropyl-7H-pyrrolo[2,3-d]pyrimidine-5-carbonyl)-pyridin-3-yl]-acetamide], for which the pIC50 is 5.58.

`CC(C)n1cc(C(=O)c2cncc(NC(=O)Cn3nnnc3-c3ccccc3)c2)c2cncnc21` [Example 378, N-[5-(7-Isopropyl-7H-pyrrolo[2,3-d]pyrimidine-5-carbonyl)-pyridin-3-yl]-2-(5-phenyl-tetrazol-1-yl)-acetamide]: the pIC50 is 6.15.

Consider `CC(C)n1cc(C(=O)c2cncc(NC(=O)c3nccc4occc34)c2)c2cncnc21` [Example 380, Furo[3,2-c]pyridine-4-carboxylic acid [5-(7-isopropyl-7H-pyrrolo[2,3-d]pyrimidine-5-carbonyl)-pyridin-3-yl]-amide], for which the pIC50 is 6.37.

For the compound `Cc1nonc1C(=O)Nc1cncc(C(=O)c2cn(C(C)C)c3ncncc23)c1` [Example 381, 4-Methyl-furazan-3-carboxylic acid [5-(7-isopropyl-7H-pyrrolo[2,3-d]pyrimidine-5-carbonyl)-pyridin-3-yl]-amide], the pIC50 is 5.56.

For `CC(C)n1cc(C(=O)c2cncc(NC(=O)c3nn(C)c4ccccc34)c2)c2cncnc21` [Example 382, 1-Methyl-1H-indazole-3-carboxylic acid [5-(7-isopropyl-7H-pyrrolo[2,3-d]pyrimidine-5-carbonyl)-pyridin-3-yl]-amide], the pIC50 is 7.34.

For `CC(C)n1cc(C(=O)c2cncc(NC(=O)c3cc4ccccc4[nH]3)c2)c2cncnc21` [Example 383, 1H-Indole-2-carboxylic acid [5-(7-isopropyl-7H-pyrrolo[2,3-d]pyrimidine-5-carbonyl)-pyridin-3-yl]-amide], the pIC50 is 6.89.

For the compound `Cc1nc(C(F)(F)F)c(C(=O)Nc2cncc(C(=O)c3cn(C(C)C)c4ncncc34)c2)s1` [Example 384, 2-Methyl-4-trifluoromethyl-thiazole-5-carboxylic acid [5-(7-isopropyl-7H-pyrrolo[2,3-d]pyrimidine-5-carbonyl)-pyridin-3-yl]-amide], the pIC50 was 5.32.

Turning to `CC(C)n1cc(C(=O)c2cncc(NC(=O)c3ncoc3C3CC3)c2)c2cncnc21` [Example 385, 5-Cyclopropyl-oxazole-4-carboxylic acid [5-(7-isopropyl-7H-pyrrolo[2,3-d]pyrimidine-5-carbonyl)-pyridin-3-yl]-amide], the pIC50 is 7.09.

With `CC(C)n1cc(C(=O)c2cncc(NC(=O)c3cccnn3)c2)c2cncnc21` [Example 386, Pyridazine-3-carboxylic acid [5-(7-isopropyl-7H-pyrrolo[2,3-d]pyrimidine-5-carbonyl)-pyridin-3-yl]-amide], the pIC50 is 5.01.
